The text below walks through data of patent US12516053B2, “Bcl-2 inhibitors” (BEIGENE, LTD., priority 2019, dated 2026).

pIC50: −log10 of the molar value. Like-named read-outs stand apart in the source and are kept apart here.

For assay [1], the system named is RS4;11 (BCL-2 dependent acute lymphoblastic leukemia cell line). In words: RS4;11 cell proliferation assay. It counts as cell-based. The note with it: CellTiter-GLO, read-out: Cellular proliferation assay (IC50, nM) RS4. The procedure: RS4;11 Cell Proliferation Assay:
Each compound was serially diluted with 1 μM as the maximum concentration. To test the apoptotic effect of the compounds, the cells were seeded at 50,000 in 180 μl per well in 96-well plates and treated with 10-point dilution series of each compound for 48 hrs at 37° C. Cell viability was assessed after the treatment using CellTiter-GLO luminescent assay (Promega) according to the manufacturer's recommendations. Briefly, 30 μl of CellTiter-GLO reagent was added into 200 μl of cell culture, Mixture was agitated on an orbital shaker for 5 mins to ensure cell lysis followed by 7 mins incubation at room temperature to allow development and stabilization of luminescent signals, which corresponded to quantity of ATP and thus the quantity of metabolically active cells. Luminescent signals were measured using PHERAstar FS reader (BMG). Mean IC50 values for cell viability were determined with GraphPad Prism software.

Assay [2] deals with Molt-4 (Bcl-xL-dependent ALL cell line). In words: Molt-4 cell proliferation assay. It counts as cell-based. The following applies: Homo sapiens, MOLT-4; CellTiter-GLO; read-out: Cellular proliferation assay (IC50, nM) Molt-4. An excerpt:
Molt-4 Cell Proliferation Assay:
Each compound was serially diluted with 10 1M as the maximum concentration. The anti-proliferative IC50s of these compounds were similarly determined as a percentage of viable cells upon treatment compared to the untreated control using CellTiter-GLO luminescent assay.

The target in assay [3] is recombinant human Bcl-2-G101V protein (Homo sapiens, UniProt P10415, G101V). The experiment in a line: Bcl-2-G101V TR-FRET assay. It counts as binding. The note with it: for IC50: TR-FRET, 0.1 nM Bcl-2-G101V, FITC labeled Bak peptide 5 nM, read-out: Biochemical assay (IC50, nM) Bcl-2 G101V. From the text:
The IC50 for each compound was derived from fitting the data to the four-parameter logistic equation by Graphpad Prism software or Dotmatics.

Assay [4] has as its target Recombinant human Bcl-2 protein (Homo sapiens, UniProt P10415). In words: Bcl-2 TR-FRET assay. The assay is classed as binding. The note with it: for IC50: TR-FRET, 0.05 nM Bcl-2, FITC labeled Bak peptide 0.5 nM, read-out: Biochemical assay (IC50, nM) Bcl-2 WT. The procedure: Compounds disclosed herein were tested for blocking of Bcl-2 protein with its ligand in an assay based on Time-Resolved Fluorescence Resonance Energy Transfer (TR-FRET) methodology. Recombinant human 0.05 nM Bcl-2 protein was pre-incubated with a serial dilution of compounds disclosed herein (top final concentration is 1 uM or 0.1 uM or 0.02 uM or 0.01 uM, 10 points) at room temperature for 0.5 hour in an assay buffer containing 20 mM potassium phosphate buffer, pH 7.5, 50 mM NaCl, 1 mM EDTA, 0.05% Tween-20, 0.01% BSA. […] The inhibition percentage of Bcl-2 interaction with its ligand in presence of increasing concentrations of compounds was calculated based on the TR-FRET signals. The IC50 for each compound was derived from fitting the data to the four-parameter logistic equation by Graphpad Prism software or Dotmatics.
(In TR-FRET formats the signal depends on donor and acceptor labels being close together.)

The target in the next assay is BA/F3-BCL-2 cells (Homo sapiens, UniProt P10415). The experiment in a line: BA/F3 cell proliferation assay, BCL-2 wild type. The assay is classed as cell-based, Murine. The procedure:
(§1) BA/F3 cell Proliferation Assay:
(§2) The cells were treated with a 10-point dilution series of compounds for 24 hrs. After the compound treatment, 30 μl of CellTiter-Glo reagent was added in each well. The effects on proliferation were determined using Cell TiterGlo reagent (Promega) according to the manufacturer's instructions. Luminescent signals were measured using PHERAstar FS plate reader (BMG Labtech). ICS50 values for cell viability were determined with GraphPad Prism software and were the geometric mean of 3 independent experiments.

A further assay concerns the target BA/F3-BCL-2 G101V cells (Homo sapiens, UniProt P10415, G101V, cells depend on it). The experiment in a line: BA/F3 cell proliferation assay, Bcl-2 G101V. The assay is classed as cell-based, Murine. The following applies: 24 hrs treatment, 3% FBS, CellTiter-Glo, geometric mean of 3 experiments; read-out: Cellular proliferation assay (IC50, nM) Bcl-2 G101V; BaF3 cell. The procedure: as §1, §2
A general note: Cellular ATP, detected with luciferase, serves as a proxy for viable cell number.

Setting [5] is: Homo sapiens, RS4-11, 48 hrs treatment.
[6] abbreviates: 24 hrs treatment, 3% FBS, CellTiter-Glo, geometric mean of 3 experiments; read-out: Cellular proliferation assay (IC50, nM) Bcl-2 WT; BaF3 cell.

Turning to `CC(C)c1ccccc1[C@@H]1CCCN1C1CC2(C1)CN(c1ccc(C(=O)NS(=O)(=O)c3ccc(NCC4(F)CCOCC4)c([N+](=O)[O-])c3)c(N3CCOc4nc5[nH]ccc5cc43)c1)C2` [Example B12, (S)-2-(2,3-dihydropyrrolo[3′,2′:5,6]pyrido[2,3-b][1,4]oxazin-1(6H)-yl)-N-((4-(((4-fluorotetrahydro-2H-pyran-4-yl)methyl)amino)-3-nitrophenyl)sulfonyl)-4-(6-(2-(2-isopropylphenyl)pyrrolidin-1-yl)-2-azaspiro[3.3]heptan-2-yl)benzamide], the IC50 in assay [1] (setting [5]) came to 3.6 nM; in assay [2] it was 7310 nM; in assay [3], 3.7 nM; in assay [4] it was 0.058 nM.
In the case of `CC(C)c1ccccc1[C@@H]1CCCN1C1CC2(CCN(c3ccc(C(=O)NS(=O)(=O)c4ccc(NC[C@H]5CC[C@](C)(O)CC5)c([N+](=O)[O-])c4)c(N4C[C@H](C)Oc5nc6[nH]ccc6cc54)c3)CC2)C1` [Example B6, N-((4-((((1r,4r)-4-hydroxy-4-methylcyclohexyl)methyl)amino)-3-nitrophenyl)sulfonyl)-4-(2-((S)-2-(2-isopropylphenyl)pyrrolidin-1-yl)-7-azaspiro[3,5]nonan-7-yl)-2-((S)-3-methyl-2,3-dihydropyrrolo[3′,2′:5,6]pyrido[2,3-b][1,4]oxazin-1(6H)-yl)benzamide], the IC50 on BA/F3-BCL-2 cells (setting [6]) worked out at 1.1 nM; in assay [1] (setting [5]), 0.34 nM; in assay [3] it was 1.2 nM; in assay [4] it was 0.027 nM. Also, the GI50 on BA/F3-BCL-2 G101V cells is 31.9 nM.
Take `CC(C)c1ccccc1[C@@H]1CCCN1C1CC2(CCN(c3ccc(C(=O)NS(=O)(=O)c4ccc(NC[C@H]5CC[C@](C)(O)CC5)c([N+](=O)[O-])c4)c(N4C[C@@H](C)Oc5nc6[nH]ccc6cc54)c3)CC2)C1` [Example B5, N-((4-((((1r,4r)-4-hydroxy-4-methylcyclohexyl)methyl)amino)-3-nitrophenyl)sulfonyl)-4-(2-((S)-2-(2-isopropylphenyl)pyrrolidin-1-yl)-7-azaspiro[3,5]nonan-7-yl)-2-((R)-3-methyl-2,3-dihydropyrrolo[3′,2′:5,6]pyrido[2,3-b][1,4]oxazin-1(6H)-yl)benzamide]: the IC50 at BA/F3-BCL-2 cells (setting [6]) came to 0.13 nM; in assay [1] (setting [5]), 1 nM; in assay [3], 1.1 nM; in assay [4], 0.025 nM. On BA/F3-BCL-2 G101V cells, the GI50 turned out to be 8.9 nM.
Broadly, the pIC50 is the IC50 on a negative log10 scale, so that one unit is a factor of ten. On to `[2H]C1([2H])CC2(CC(N3CCC[C@H]3c3ccccc3C(C)C)C2)CC([2H])([2H])N1c1ccc(C(=O)NS(=O)(=O)c2cc3c(c([N+](=O)[O-])c2)N[C@H](C[C@H]2CC[C@H](O)CC2)CO3)c(Oc2cnc3[nH]ccc3c2)c1` [Example A6, 2-((1H-pyrrolo[2,3-b]pyridin-5-yl)oxy)-N—(((R)-3-(((1r,4R)-4-hydroxycyclohexyl)methyl)-5-nitro-3,4-dihydro-2H-benzo[b][1,4]oxazin-7-yl)sulfonyl)-4-(2-((S)-2-(2-isopropylphenyl)pyrrolidin-1-yl)-7-azaspiro[3,5]nonan-7-yl-6,6,8,8-d4)benzamide], for which the IC50 on BA/F3-BCL-2 cells (read-out: Cellular proliferation assay (IC50, nM) Bcl-2 WT; BaF3 cell; 24 hrs treatment, 3% FBS, CellTiter-Glo, geometric mean of 3 experiments) was 0.25 nM; in assay [1] (setting [5]), 1.3 nM. Besides, at BA/F3-BCL-2 G101V cells, the GI50 was 21.1 nM. In addition, the pIC50 is 9.29 in assay [3] and 10.68 in assay [4].
As to `CC1(C)CCC(CN2CCN(c3ccc(C(=O)NS(=O)(=O)c4ccc(NCC5CCOCC5)c([N+](=O)[O-])c4)c(Oc4cnc5[nH]ccc5c4)c3)CC2)=C(c2ccc(Cl)cc2)C1` [ABT-199, Venetoclax, reference compound], the IC50 in assay [1] (setting [5]) was found to be 4.2 nM; in assay [2], 2570 nM.
Take `CC(C)c1ccccc1[C@@H]1CCCN1C1CC2(CCN(c3ccc(C(=O)NS(=O)(=O)c4cc5c(c([N+](=O)[O-])c4)N[C@H](C[C@H]4CC[C@H](O)CC4)CO5)c(N4CCCOc5nc6[nH]ccc6cc54)c3)CC2)C1` [Example B9, 2-(3,4-dihydro-2H-pyrrolo[3′,2′:5,6]pyrido[2,3-b][1,4]oxazepin-1(7H)-yl)-N—(((R)-3-(((1R,4R)-4-hydroxycyclohexyl)methyl)-5-nitro-3,4-dihydro-2H-benzo[b][1,4]oxazin-7-yl)sulfonyl)-4-(2-((S)-2-(2-isopropylphenyl)pyrrolidin-1-yl)-7-azaspiro[3,5]nonan-7-yl)benzamide]: the IC50 at BA/F3-BCL-2 cells (setting [6]) is 0.83 nM; in assay [1] (setting [5]) it was 0.5 nM; in assay [3], 3.3 nM; in assay [4], 0.038 nM. Also, the GI50 at BA/F3-BCL-2 G101V cells came to 34.9 nM.
As for `CC(C)c1ccccc1[C@@H]1CCCN1C1CC2(CCN(c3ccc(C(=O)NS(=O)(=O)c4cc5c(c([N+](=O)[O-])c4)N[C@H](CC4CCC(O)CC4)CO5)c(N4C[C@H](C)Oc5nc6[nH]ccc6cc54)c3)CC2)C1` (stereo partly drawn) [Example B8, N—(((R)-3-(((1r,4R)-4-hydroxycyclohexyl)methyl)-5-nitro-3,4-dihydro-2H-benzo[b][1,4]oxazin-7-yl)sulfonyl)-4-(2-((S)-2-(2-isopropylphenyl)pyrrolidin-1-yl)-7-azaspiro[3,5]nonan-7-yl)-2-((S)-3-methyl-2,3-dihydropyrrolo[3′,2′:5,6]pyrido[2,3-b][1,4]oxazin-1(6H)-yl)benzamide], the IC50 came out at 0.65 nM at BA/F3-BCL-2 cells (setting [6]), 0.7 nM in assay [1] (48 hrs treatment), 3.3 nM in assay [3] and 0.055 nM in assay [4]. Besides, at BA/F3-BCL-2 G101V cells, the GI50 is 41.2 nM.
Turning to `[2H]C1([2H])CCC([2H])(c2ccccc2C(C)C)N1C1CC2(CCN(c3ccc(C(=O)NS(=O)(=O)c4cc5c(c([N+](=O)[O-])c4)N[C@H](C[C@H]4CC[C@H](O)CC4)CO5)c(Oc4cnc5[nH]ccc5c4)c3)CC2)C1` (stereo partly drawn) [Example A7, 2-((1H-pyrrolo[2,3-b]pyridin-5-yl)oxy)-N—(((R)-3-(((1r,4R)-4-hydroxycyclohexyl)methyl)-5-nitro-3,4-dihydro-2H-benzo[b][1,4]oxazin-7-yl)sulfonyl)-4-(2-(2-(2-isopropylphenyl)pyrrolidin-1-yl-2,5,5-d3)-7-azaspiro[3,5]nonan-7-v)benzamide], the IC50 stood at 0.38 nM at BA/F3-BCL-2 cells (setting [6]), 1.5 nM in assay [1] (setting [5]), 0.92 nM in assay [3] and 0.021 nM in assay [4]. Besides, at BA/F3-BCL-2 G101V cells, the GI50 stood at 35.8 nM.
Consider `CC(C)c1ccccc1[C@@H]1CCCN1C1CC2(CCN(c3ccc(C(=O)NS(=O)(=O)c4cc5c(c([N+](=O)[O-])c4)N[C@H](C[C@H]4CC[C@H](O)CC4)CO5)c(N4C[C@@H](C)Oc5nc6[nH]ccc6cc54)c3)CC2)C1` [Example B7, N—(((R)-3-(((1r,4R)-4-hydroxycyclohexyl)methyl)-5-nitro-3,4-dihydro-2H-benzo[b][1,4]oxazin-7-yl)sulfonyl)-4-(2-((S)-2-(2-isopropylphenyl)pyrrolidin-1-yl)-7-azaspiro[3,5]nonan-7-yl)-2-((R)-3-methyl-2,3-dihydropyrrolo[3′,2′:5,6]pyrido[2,3-b][1,4]oxazin-1(6H)-yl)benzamide], for which the IC50 at BA/F3-BCL-2 cells (setting [6]) turned out to be 0.18 nM; in assay [1] (setting [5]) it was 0.8 nM; in assay [3], 1.5 nM; in assay [4] it was 0.048 nM. Also, at BA/F3-BCL-2 G101V cells, the GI50 amounted to 11.2 nM.
